Experimental findings from BindingDB's records for doi:10.1124/jpet.104.077339 (Section of Pharmacology, 2005) are described below.

Experiment [1] concerns the target Kappa-type opioid receptor (Homo sapiens, UniProt P41145).
Experiment [2] has as its target Delta-type opioid receptor (Homo sapiens, UniProt P41143).
In another experiment the target is Mu-type opioid receptor (Homo sapiens, UniProt P35372).
Experiment [3] concerns the target Nociceptin receptor (Rattus norvegicus, UniProt P35370).
The target in experiment [4] is Nociceptin receptor (Mus musculus, UniProt P35377).
Chain of Nociceptin receptor (Mus musculus, UniProt P35377) (P35377 whole entry): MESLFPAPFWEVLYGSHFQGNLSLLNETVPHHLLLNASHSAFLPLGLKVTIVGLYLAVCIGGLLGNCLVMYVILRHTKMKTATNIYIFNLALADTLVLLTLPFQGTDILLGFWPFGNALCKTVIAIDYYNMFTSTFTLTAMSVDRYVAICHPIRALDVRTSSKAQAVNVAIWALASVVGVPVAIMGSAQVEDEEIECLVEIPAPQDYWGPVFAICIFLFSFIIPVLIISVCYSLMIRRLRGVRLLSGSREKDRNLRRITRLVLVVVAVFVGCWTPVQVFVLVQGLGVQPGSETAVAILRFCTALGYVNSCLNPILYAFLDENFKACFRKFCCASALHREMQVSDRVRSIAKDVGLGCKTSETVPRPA
The target in experiment [5] is Nociceptin receptor (Homo sapiens, UniProt P41146).
Chain of Nociceptin receptor (Homo sapiens, UniProt P41146) (P41146 whole entry): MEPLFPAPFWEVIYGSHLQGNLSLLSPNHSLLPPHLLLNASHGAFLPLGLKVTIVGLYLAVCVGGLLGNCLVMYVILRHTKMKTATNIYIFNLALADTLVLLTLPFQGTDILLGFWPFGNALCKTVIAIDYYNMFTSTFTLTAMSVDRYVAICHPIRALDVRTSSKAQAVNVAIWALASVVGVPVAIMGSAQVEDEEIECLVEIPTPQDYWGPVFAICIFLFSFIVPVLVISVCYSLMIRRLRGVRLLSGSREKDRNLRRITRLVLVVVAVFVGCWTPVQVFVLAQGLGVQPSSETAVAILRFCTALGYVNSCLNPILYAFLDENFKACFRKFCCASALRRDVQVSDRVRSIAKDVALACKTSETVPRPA
Experiment [6] has as its target Nociceptin receptor (Cavia porcellus).

Where “and” joins values, the source holds several entries; their conditions need not be identical. Equal entries are not always repeated.

Chain of Kappa-type opioid receptor (P41145 whole entry): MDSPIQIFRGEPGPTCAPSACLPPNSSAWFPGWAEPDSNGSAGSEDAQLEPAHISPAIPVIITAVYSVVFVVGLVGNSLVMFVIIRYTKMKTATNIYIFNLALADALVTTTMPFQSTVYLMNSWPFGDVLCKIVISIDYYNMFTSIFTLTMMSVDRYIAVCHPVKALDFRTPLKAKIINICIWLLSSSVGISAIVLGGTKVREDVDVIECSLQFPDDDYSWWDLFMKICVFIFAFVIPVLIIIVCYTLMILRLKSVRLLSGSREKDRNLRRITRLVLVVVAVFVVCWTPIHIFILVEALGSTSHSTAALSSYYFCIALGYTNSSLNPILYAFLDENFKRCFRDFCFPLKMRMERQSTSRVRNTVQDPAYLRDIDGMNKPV
Chain of Mu-type opioid receptor (P35372 whole entry): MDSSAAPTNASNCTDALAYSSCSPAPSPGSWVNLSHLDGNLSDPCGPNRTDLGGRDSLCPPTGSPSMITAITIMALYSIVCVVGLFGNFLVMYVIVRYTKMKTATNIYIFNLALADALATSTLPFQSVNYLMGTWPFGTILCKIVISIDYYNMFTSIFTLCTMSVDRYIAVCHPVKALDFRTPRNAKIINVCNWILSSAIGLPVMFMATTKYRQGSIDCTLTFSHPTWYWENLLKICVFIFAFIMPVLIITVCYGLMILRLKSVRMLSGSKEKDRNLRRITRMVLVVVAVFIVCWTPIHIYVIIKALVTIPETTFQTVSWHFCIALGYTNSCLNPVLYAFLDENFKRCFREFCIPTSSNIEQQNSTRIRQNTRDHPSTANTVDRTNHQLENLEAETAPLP
Chain of Nociceptin receptor (Rattus norvegicus, UniProt P35370) (P35370 whole entry): as the sequence (P35377 whole entry) above, with F9Y, A335S counted along it
Chain of Delta-type opioid receptor (P41143 whole entry): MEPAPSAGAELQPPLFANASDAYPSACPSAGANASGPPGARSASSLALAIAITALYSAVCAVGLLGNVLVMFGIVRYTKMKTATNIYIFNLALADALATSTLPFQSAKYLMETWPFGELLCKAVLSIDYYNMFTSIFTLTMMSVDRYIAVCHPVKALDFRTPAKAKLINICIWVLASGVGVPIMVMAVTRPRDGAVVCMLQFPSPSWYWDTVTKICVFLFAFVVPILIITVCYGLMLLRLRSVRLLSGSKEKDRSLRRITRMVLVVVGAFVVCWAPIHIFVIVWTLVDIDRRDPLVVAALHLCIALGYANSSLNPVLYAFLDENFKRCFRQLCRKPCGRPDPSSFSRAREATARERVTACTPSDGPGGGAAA

The term Ki denotes the equilibrium dissociation constant of an inhibitor or competing ligand from its target. Low readings indicate tighter binding, high ones weaker binding. What is called EC50 is the concentration needed to bring the measured effect to its halfway point. The low end stands for a more potent agent, the high end for a less potent agent. Regarding `C[C@H](NC(=O)CNC(=O)[C@@H](NC(=O)[C@H](Cc1ccc(F)cc1)NC(=O)CNC(=O)CNC(=O)[C@@H](N)Cc1ccccc1)[C@@H](C)O)C(=O)N[C@@H](CCCNC(=N)N)C(=O)N[C@@H](CCCCN)C(=O)N[C@@H](CO)C(=O)N[C@@H](C)C(=O)N[C@@H](CCCNC(=N)N)C(=O)N[C@@H](CCCCN)C(=O)N[C@@H](CCCNC(=N)N)C(=O)N[C@@H](CCCCN)C(=O)N[C@@H](CC(N)=O)C(=O)N[C@@H](CCC(N)=O)C(N)=O` [OFQ/N UFP-102], the Ki in experiment [1] was 4.79 nM; in experiment [2], 380 nM; on Mu-type opioid receptor it was 70.8 nM; at Nociceptin receptor [3] it was 2.69 nM; at Nociceptin receptor [4] it was 0.38 nM and 0.65 nM and 0.36 nM; on Nociceptin receptor [5], 0.076 nM and 0.068 nM and 0.021 nM. Moreover, in experiment [6], a half-maximal response (EC50) required 0.58 nM.
